{
  "source": "paper PMC7232244",
  "about": "“Aspartic Acid Isomerization Characterized by High Definition Mass Spectrometry Significantly Alters the Bioactivity of a Novel Toxin from Poecilotheria” (Toxins, 2020)",
  "format": "physicochemical",
  "details": "chromatographic, reversed-phase UPLC BEH C18, 0.10% formic acid/acetonitrile gradient; P. vittata venom (Figure 3A); taken as increased solubility / loss of hydrophobicity",
  "source_text": "We used an iterative series of analytical processes to identify potential peptide modulators for neuronal activity and subsequently identified their primary structure, including PTMs, that may alter their efficacy and potency. In the initial phase of toxin selection, venom from Poecilotheria were collected and screened by HDMS^E. The venom was a complex mixture of molecules with a high percentage of proteinaceous materials ranging from 3–6 kDa with an average venom yield from 50 collections (five from each of the ten species) of ~148 ± 12 μg of total protein per μL of venom as determined by conventional Bradford assay (data not shown). An analytical screening of each venom was performed for preliminary compound identification and any PTMs, e.g., isobaric conformations. 100 μg of lyophilized venom from each species of Poecilotheria were suspended in 1 mL of the initial mobile phase and a 1 μL aliquot injection was made into an UPLC coupled to a HDMS. […]\nIn order to calculate the molecular mass, we deconvoluted the charge envelope of each peptide using high-resolution mass spectrometry MS scans (“MS” in HDMS^E). […] The molecular monoisotopic masses of PcaTX-1a and PcaTX-1b were determined to be 4024.710 Da and 4024.709 Da, respectively (Figure 3B,C). […]",
  "note": "Numbered stars: 1 amine (or outer) side, 2 acyl side, 3 side chain; on linkers, the order of the positions; unused ones are H or OH. Bridge positions count the residues as written; N and C are the ends. Square brackets hold non-standard residues; d marks the D form. Peptide text beside a SMILES is read from it. βAsp = O=C(O)[C@H](CC(=O)[*:2])N[*:1]",
  "data": [
    {"smiles": "CC(C)C[C@@H]1NC(=O)[C@H](Cc2c[nH]cn2)NC(=O)[C@H](CCCCN)NC(=O)[C@@H]2CSSC[C@H](NC(=O)CNC(=O)[C@H](C)N)C(=O)N[C@@H](CCCCN)C(=O)N[C@@H](Cc3ccc(O)cc3)C(=O)N[C@@H](CC(C)C)C(=O)N[C@@H](Cc3ccccc3)C(=O)NCC(=O)N[C@@H](CO)C(=O)N[C@H]3CSSC[C@H](NC(=O)CNC1=O)C(=O)N[C@@H](CCCNC(=N)N)C(=O)N[C@@H](CCCNC(=N)N)C(=O)N[C@@H](CCCCN)C(=O)N[C@@H](C)C(=O)N1CCC[C@H]1C(=O)N[C@@H](CCC(N)=O)C(=O)N[C@@H](Cc1ccc(O)cc1)C(=O)N[C@H](C(=O)NCC(=O)N[C@@H](Cc1c[nH]c4ccccc14)C(=O)N[C@@H](CC(=O)NCC(=O)N[C@H](C(=O)N[C@@H](Cc1ccccc1)C(N)=O)[C@@H](C)O)C(=O)O)CSSC[C@H](NC(=O)[C@H](CC(=O)O)NC(=O)[C@H](CO)NC(=O)[C@H](CC(=O)O)NC(=O)[C@H](CCC(=O)O)NC(=O)[C@H](CCCCN)NC3=O)C(=O)N2", "note": "[PcaTX-1a] (H-AGCKYLFGSCKEDSDCCKHLGCRRKAPQYCGW[βAsp]GTF-NH2; disulfide 3-17, 10-22, 16-30)", "values": [
      {"measurement": "decrease of partition coefficient (k') as compared to PcaTX-1b", "value": 9.3, "unit": "%"}
    ]}
  ]
}
